Activity calls are given as the source filed them. No cut-off for these calls is given here.
How the values were obtained:
[1] = target: Glycogen synthase kinase-3 alpha (Homo sapiens) (UniProt P49840); assay: Induction of GSK3alpha degradation in human SH-SY5Y cells assessed as maximum degradation at 1 uM measured after 9 hrs by western blot assay; type: cell-based
[2] = target: T1, Protein cereblon/Glycogen synthase kinase-3 alpha (Homo sapiens, UniProt P49840+Q96SW2); assay: Protac activity at CRBN/GSK3alpha in human SH-SY5Y cells assessed as induction of GSK3alpha protein degradation measured after 24 hrs; type: cell-based
Target sequence in this assay (P49840 whole entry): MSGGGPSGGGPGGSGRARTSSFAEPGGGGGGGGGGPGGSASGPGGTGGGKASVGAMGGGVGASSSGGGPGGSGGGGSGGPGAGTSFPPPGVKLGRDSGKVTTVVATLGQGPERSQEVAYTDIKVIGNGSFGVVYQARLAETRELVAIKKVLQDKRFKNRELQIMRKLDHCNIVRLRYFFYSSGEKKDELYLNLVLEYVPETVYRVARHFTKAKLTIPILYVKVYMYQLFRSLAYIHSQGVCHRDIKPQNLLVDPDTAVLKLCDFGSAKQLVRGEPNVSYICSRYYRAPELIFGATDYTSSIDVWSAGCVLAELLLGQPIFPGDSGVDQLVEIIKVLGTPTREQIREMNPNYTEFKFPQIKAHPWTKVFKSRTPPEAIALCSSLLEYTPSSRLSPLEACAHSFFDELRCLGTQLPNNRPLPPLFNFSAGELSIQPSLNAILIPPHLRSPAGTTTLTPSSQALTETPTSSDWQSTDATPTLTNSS
Target sequence in this assay (Q96SW2 whole entry): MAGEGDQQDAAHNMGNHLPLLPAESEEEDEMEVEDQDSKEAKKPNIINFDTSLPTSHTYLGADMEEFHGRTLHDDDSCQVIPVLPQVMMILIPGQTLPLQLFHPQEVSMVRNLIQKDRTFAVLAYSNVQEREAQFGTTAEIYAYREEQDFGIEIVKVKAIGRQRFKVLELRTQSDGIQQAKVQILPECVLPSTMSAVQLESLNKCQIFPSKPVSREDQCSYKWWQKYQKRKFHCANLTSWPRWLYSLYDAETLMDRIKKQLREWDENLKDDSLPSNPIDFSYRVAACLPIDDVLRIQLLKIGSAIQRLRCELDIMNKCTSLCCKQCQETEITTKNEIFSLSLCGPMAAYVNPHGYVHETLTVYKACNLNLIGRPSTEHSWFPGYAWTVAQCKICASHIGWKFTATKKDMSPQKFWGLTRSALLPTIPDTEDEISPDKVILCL

SH-SY5Y [3] = assay: Downregulation of GSK3beta expression in human SH-SY5Y cells at 62.5 to 500 nM pretreated for 2 hrs followed by Abeta42 coincubation for 72 hrs by Westernblot analysis; type: functional, cell-based; conditions: dose 62.5-500 nM, time 74.0 hrs
Rattus norvegicus [4] = assay: Antialzheimer activity against hippocampal tissue of okadaic acid induced Sprague-Dawley rat assessed as reduction on GSK3alpha protein level at 200 to 600 uM, iv by western blot assay; type: functional, organism-based; conditions: Hippocampus, dose 200-600 µM
Rattus norvegicus [5] = assay: Antialzheimer activity against hippocampal tissue of okadaic acid induced Sprague-Dawley rat assessed as reduction on tau protein level at 200 to 600 uM, iv by western blot assay; type: functional, organism-based; conditions: Hippocampus, dose 200-600 µM
[6] = target: T1, Protein cereblon/Glycogen synthase kinase-3 alpha; assay: Protac activity at CRBN/GSK3alpha in human SH-SY5Y cells assessed as induction of GSK3alpha protein degradation at 1 uM measured after 24 hrs; type: cell-based
Target sequence in this assay (P49840 2-483 limits assumed): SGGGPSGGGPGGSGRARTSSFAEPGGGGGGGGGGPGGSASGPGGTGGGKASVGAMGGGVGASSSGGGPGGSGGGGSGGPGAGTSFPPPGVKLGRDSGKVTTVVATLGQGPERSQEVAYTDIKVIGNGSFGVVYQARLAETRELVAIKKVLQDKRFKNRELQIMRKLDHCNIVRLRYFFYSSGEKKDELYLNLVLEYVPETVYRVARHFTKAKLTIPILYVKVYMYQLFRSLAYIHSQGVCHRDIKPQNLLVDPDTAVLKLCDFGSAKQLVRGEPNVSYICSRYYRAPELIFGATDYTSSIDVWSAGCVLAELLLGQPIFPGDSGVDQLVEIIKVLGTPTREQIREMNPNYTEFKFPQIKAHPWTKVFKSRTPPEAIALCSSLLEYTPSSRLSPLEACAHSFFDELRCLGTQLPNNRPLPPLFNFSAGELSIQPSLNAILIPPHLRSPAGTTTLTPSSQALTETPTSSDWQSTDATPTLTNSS
Target sequence in this assay (Q96SW2 whole entry partner): as the sequence (Q96SW2 whole entry) above

[7] = target: T2, Protein cereblon/Glycogen synthase kinase-3 beta (Homo sapiens, UniProt P49841+Q96SW2); assay: Protac activity at CRBN/GSK3beta in human SH-SY5Y cells assessed as induction of GSK3beta degradation at 1 uM measured after 24 hrs; type: cell-based
T2 sequence (P49841 whole entry, looked up): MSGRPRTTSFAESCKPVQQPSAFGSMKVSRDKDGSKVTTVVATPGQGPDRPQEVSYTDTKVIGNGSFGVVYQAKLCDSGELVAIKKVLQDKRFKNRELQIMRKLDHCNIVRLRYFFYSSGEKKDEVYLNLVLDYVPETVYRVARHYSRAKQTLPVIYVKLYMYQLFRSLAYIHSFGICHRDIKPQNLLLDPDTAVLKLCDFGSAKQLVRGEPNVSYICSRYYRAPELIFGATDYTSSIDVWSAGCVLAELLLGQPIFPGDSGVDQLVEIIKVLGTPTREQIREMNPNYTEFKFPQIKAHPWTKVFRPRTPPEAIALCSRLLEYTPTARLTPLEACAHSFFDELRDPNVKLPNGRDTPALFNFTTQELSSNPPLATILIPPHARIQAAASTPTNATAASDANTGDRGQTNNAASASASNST
T2 sequence (Q96SW2 whole entry, looked up): as the sequence (Q96SW2 whole entry) above

SH-SY5Y [8] = assay: Induction of apoptosis in human SH-SY5Y cells assessed as necrotic cells at 250 nM preincubated for 2 hrs followed by coincubation with Abeta42 and measured after 72 hrs by Annexin V-FITC/propidium iodide staining based flow cytometry (Rvb=0.7%); type: functional; conditions: time 74 hrs
[9] = target: T1, Protein cereblon/Glycogen synthase kinase-3 alpha; assay: Protac activity at CRBN/GSK3alpha in human SH-SY5Y cells assessed as GSK3alpha degradation at 1 uM pretreated with MG-132 for 2 hrs followed by compound addition and measured after 24 hrs; type: cell-based
Target sequence in this assay (P49840 2-483 limits assumed): as the sequence (P49840 2-483 limits assumed) above
Target sequence in this assay (Q96SW2 whole entry partner): as the sequence (Q96SW2 whole entry) above

[10] = target: T2, Protein cereblon/Glycogen synthase kinase-3 beta; assay: Protac activity at CRBN/GSK3beta in human SH-SY5Y cells assessed as induction of GSK3beta degradation at 0.1 uM measured after 24 hrs; type: cell-based
SH-SY5Y [11] = assay: Effect on tau protein expression in human SH-SY5Y cells assessed as reduction on phosphorylated tau Ser396 residue level at 62.5 to 500 nM pretreated for 2 hrs followed by Abeta42 coincubation for 72 hrs by Westernblot analysis; type: functional, cell-based; conditions: dose 62.5-500 nM, time 74.0 hrs
SH-SY5Y [12] = assay: Induction of apoptosis in human SH-SY5Y cells assessed as early apoptotic cells at 250 nM preincubated for 2 hrs followed by coincubation with Abeta42 and measured after 72 hrs by Annexin V-FITC/propidium iodide staining based flow cytometry (Rvb=1%); type: functional; conditions: time 74 hrs
SH-SY5Y [13] = assay: Induction of apoptosis in human SH-SY5Y cells assessed as late apoptotic cells at 62.5 nM preincubated for 2 hrs followed by coincubation with Abeta42 and measured after 72 hrs by Annexin V-FITC/propidium iodide staining based flow cytometry (Rvb=3.5%); type: functional; conditions: time 74 hrs
[14] = target: T1, Protein cereblon/Glycogen synthase kinase-3 alpha; assay: Protac activity at CRBN/GSK3alpha in human SH-SY5Y cells assessed as GSK3alpha degradation at 1 uM pretreated with pomalidomide for 2 hrs followed by compound addition and measured after 24 hrs; type: cell-based
Target sequence in this assay (P49840 2-483 limits assumed): as the sequence (P49840 2-483 limits assumed) above
Target sequence in this assay (Q96SW2 whole entry partner): as the sequence (Q96SW2 whole entry) above

Rattus norvegicus [15] = assay: Antialzheimer activity against hippocampal tissue of okadaic acid induced Sprague-Dawley rat assessed as reduction on tau protein level at 200 to 600 uM, iv by immunohistochemical staining based analysis; type: functional, organism-based; conditions: Hippocampus, dose 200-600 µM
SH-SY5Y [16] = assay: Effect on tau protein expression in human SH-SY5Y cells assessed as reduction on phosphorylated tau threonine205 residue level at 62.5 to 500 nM pretreated for 2 hrs followed by Abeta42 coincubation for 72 hrs by Westernblot analysis; type: functional, cell-based; conditions: dose 62.5-500 nM, time 74.0 hrs

Chain of Glycogen synthase kinase-3 alpha (Homo sapiens) (P49840 2-483 limits assumed): as the sequence (P49840 2-483 limits assumed) above

## Nc1ncc(-c2ccc(S(=O)(=O)N3CCN(CCCCc4cn(CCOCCOCCOCCOCCOCCNc5cccc6c5C(=O)N(C5CCC(=O)NC5=O)C6=O)nn4)CC3)cc2)nc1C(=O)Nc1cccnc1 (stereo unspecified)
[1]
  Activity: Active
[2]
  DC50: 28.3 nM
SH-SY5Y [3]
  Activity: Dose-Dependent Effect
Rattus norvegicus [4]
  Activity: Active
Rattus norvegicus [5]
  Activity: Active
[6]
  Activity: 94.3%
[7]
  Activity: 90.8%
SH-SY5Y [8]
  Activity: 2.8%
[9]
  Activity: inactive
[10]
  Activity: 67.1%
SH-SY5Y [11]
  Activity: Dose-Dependent Effect
SH-SY5Y [12]
  Activity: 1.2%
SH-SY5Y [13]
  Activity: 14.3%
[14]
  Activity: inactive
Rattus norvegicus [15]
  Activity: Active
SH-SY5Y [16]
  Activity: Dose-Dependent Effect

Source: ChEMBL document CHEMBL5038618, “Discovery of PT-65 as a highly potent and selective Proteolysis-targeting chimera degrader of GSK3 for treating Alzheimer's disease” (Eur J Med Chem, 2021)
